# Measurements: patent US9969742B2, “Imidazotriazinone compounds” (Ironwood Pharmaceuticals, Inc., priority 2012, dated 2018)
# Like-named read-outs stand apart in the source and are kept apart here.
# Legend:
# Type in all cases: biochemical
# PDE9A2 = biological target: T1, PDE9A2 (Homo sapiens, UniProt O76083); experiment: Phosphodiesterase enzyme screening assay, PDE9A2; conditions: read-out: Band (PDE9A2 IC50)
# T1 construct: purchased Reaction Biology Corporation, Malvern, Pa
# Procedure, shortened: (§1)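 Reaction started by adding substrate (4.0 μM cGMP) to recombinant human enzyme in HEPES pH 7.5 buffer with MgCl2, DTT and Brij; 1 h at room temperature; quenched with EDTA-containing stop buffer; product and substrate resolved electrophoretically and quantified by fluorescence relative to uninhibited controls.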
# PDE1A = biological target: T2, PDE1A (Homo sapiens, UniProt P54750); experiment: Phosphodiesterase enzyme screening assay, PDE1A
# T2 construct: purchased Reaction Biology Corporation, Malvern, Pa
# T2 sequence (P54750 whole entry): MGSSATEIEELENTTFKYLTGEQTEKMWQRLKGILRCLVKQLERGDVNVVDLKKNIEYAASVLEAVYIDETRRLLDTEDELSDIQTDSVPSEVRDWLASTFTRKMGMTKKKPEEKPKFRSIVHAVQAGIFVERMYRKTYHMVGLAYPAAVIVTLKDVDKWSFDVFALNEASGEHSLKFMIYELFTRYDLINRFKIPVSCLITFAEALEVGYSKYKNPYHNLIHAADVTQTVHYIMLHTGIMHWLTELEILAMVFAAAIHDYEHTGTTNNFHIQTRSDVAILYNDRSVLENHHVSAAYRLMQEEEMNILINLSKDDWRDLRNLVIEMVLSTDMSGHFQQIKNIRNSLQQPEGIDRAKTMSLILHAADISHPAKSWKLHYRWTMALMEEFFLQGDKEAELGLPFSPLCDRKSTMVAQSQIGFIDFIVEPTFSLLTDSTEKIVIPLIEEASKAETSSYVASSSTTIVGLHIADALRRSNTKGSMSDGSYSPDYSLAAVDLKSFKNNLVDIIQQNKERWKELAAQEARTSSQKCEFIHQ
# Procedure, shortened: as §1
# PDE1B = biological target: T3, PDE1B (Homo sapiens, UniProt Q01064); experiment: Phosphodiesterase enzyme screening assay, PDE1B
# T3 construct: purchased Reaction Biology Corporation, Malvern, Pa
# T3 sequence (Q01064 whole entry): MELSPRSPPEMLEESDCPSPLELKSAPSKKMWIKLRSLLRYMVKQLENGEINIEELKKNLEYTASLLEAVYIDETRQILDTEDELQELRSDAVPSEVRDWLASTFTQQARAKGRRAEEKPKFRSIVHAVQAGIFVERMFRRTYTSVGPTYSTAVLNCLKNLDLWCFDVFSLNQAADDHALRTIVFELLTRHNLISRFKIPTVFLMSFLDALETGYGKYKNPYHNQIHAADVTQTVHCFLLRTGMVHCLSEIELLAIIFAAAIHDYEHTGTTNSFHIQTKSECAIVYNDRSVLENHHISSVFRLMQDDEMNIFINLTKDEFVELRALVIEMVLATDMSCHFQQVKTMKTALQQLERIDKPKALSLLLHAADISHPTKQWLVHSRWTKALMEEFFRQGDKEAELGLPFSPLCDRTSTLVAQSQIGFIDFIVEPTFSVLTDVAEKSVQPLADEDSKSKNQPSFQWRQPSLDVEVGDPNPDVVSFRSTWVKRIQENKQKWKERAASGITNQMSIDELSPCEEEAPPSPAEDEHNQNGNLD
# Procedure, shortened: as §1
# [1] = ratio of IC50 values, value greater than 1 indicates greater selectivity for PDE9A2
# [2] = Table 2, ratio of IC50 values, value greater than 1 indicates greater selectivity for PDE9A2
# [3] = Table 1, 10 concentrations, 4.0 μM cGMP substrate, 1 hour at R.T.
# [4] = Table 1, ratio of IC50 values, value greater than 1 indicates greater selectivity for PDE9A2
# [5] = 4.0 μM cGMP substrate, 1 hour at R.T.
# [6] = ratio of IC50 values, PDE1A versus PDE9A2, value greater than 1 indicates greater selectivity for PDE9A2
# [7] = ratio of IC50 values, PDE1B versus PDE9A2, value greater than 1 indicates greater selectivity for PDE9A2
# T1 sequence (O76083 1-533 isoform O76083-2): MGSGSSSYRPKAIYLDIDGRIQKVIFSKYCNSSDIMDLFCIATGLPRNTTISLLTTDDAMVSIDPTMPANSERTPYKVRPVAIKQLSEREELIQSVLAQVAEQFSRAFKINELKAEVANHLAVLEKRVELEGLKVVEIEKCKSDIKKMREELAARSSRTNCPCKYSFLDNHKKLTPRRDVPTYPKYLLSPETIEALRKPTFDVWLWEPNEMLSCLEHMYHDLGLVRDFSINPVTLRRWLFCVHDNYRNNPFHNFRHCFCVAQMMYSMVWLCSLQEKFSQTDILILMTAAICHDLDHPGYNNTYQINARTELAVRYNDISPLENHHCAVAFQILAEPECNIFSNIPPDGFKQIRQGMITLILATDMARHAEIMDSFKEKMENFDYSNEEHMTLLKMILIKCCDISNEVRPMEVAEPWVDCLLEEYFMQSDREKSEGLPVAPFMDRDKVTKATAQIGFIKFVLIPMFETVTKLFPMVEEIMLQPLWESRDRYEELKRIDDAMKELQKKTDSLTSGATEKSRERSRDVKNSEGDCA
structure (smiles),measurement,setting,value
"Cc1nc(CN2CC(C)C(c3nn4c(C5CCOCC5)ncc4c(=O)[nH]3)C2)no1 (single isomer, unassigned; (+)) [(+)-2-((3,4-trans)-4-methyl-1-((5-methyl-1,2,4-oxadiazol-3-yl)methyl)pyrrolidin-3-yl)-7-(tetrahydro-2H-pyran-4-yl)imidazo[5,1-f][1,2,4]triazin-4(3H)-one]",IC50,PDE9A2,< 1000 nM
same,PDE1A selectivity (versus PDE9A2),PDE1A; [1],20
same,PDE1B selectivity (versus PDE9A2),PDE1B; [1],21
"Cc1cnc(CN2CC(C)C(c3nn4c(C5CCOCC5)ncc4c(=O)[nH]3)C2)nc1 (single isomer, unassigned; (+)) [(+)-2-((3,4-trans)-4-methyl-1-((5-methylpyrimidin-2-yl)methyl)pyrrolidin-3-yl)-7-(tetrahydro-2H-pyran-4-yl)imidazo[5,1-f][1,2,4]triazin-4(3H)-one]",IC50,"PDE9A2; Table 2, 10 concentrations, 4.0 μM cGMP substrate, 1 hour at R.T.",< 1000 nM
same,PDE1A selectivity (versus PDE9A2),PDE1A; [2],42
same,PDE1B selectivity (versus PDE9A2),PDE1B; [2],76
"CC1CN(Cc2cccc(C(F)(F)F)n2)CC1c1nn2c(C3CCOCC3)ncc2c(=O)[nH]1 (single isomer, unassigned; (+)) [(+)-2-((3,4-trans)-4-methyl-1-((6-(trifluoromethyl)pyridin-2-yl)methyl)pyrrolidin-3-yl)-7-(tetrahydro-2H-pyran-4-yl)imidazo[5,1-f][1,2,4]triazin-4(3H)-one]",IC50,"PDE9A2; Table 3, 4.0 μM cGMP substrate, 1 hour at R.T.",< 1000 nM
same,PDE1A selectivity (versus PDE9A2),"PDE1A; ratio of IC50 values, PDE1A versus PDE9A2, value greater than 1 = greater selectivity for PDE9A2",708
same,PDE1B selectivity (versus PDE9A2),"PDE1B; ratio of IC50 values, PDE1B versus PDE9A2, value greater than 1 = greater selectivity for PDE9A2",389
"CC1CN(Cc2ccc(C(F)(F)F)nc2)CC1c1nn2c(C3CCOCC3)ncc2c(=O)[nH]1 (single isomer, unassigned; (+)) [(+)-2-((3,4-trans)-4-methyl-1-((6-(trifluoromethyl)pyridin-3-yl)methyl)pyrrolidin-3-yl)-7-(tetrahydro-2H-pyran-4-yl)imidazo[5,1-f][1,2,4]triazin-4(3H)-one]",IC50,PDE9A2; [3],< 1000 nM
same,PDE1A selectivity (versus PDE9A2),PDE1A; [4],333
same,PDE1B selectivity (versus PDE9A2),PDE1B; [4],980
"Cc1cccc(CN2CC(C)C(c3nn4c(C5CCOCC5)ncc4c(=O)[nH]3)C2)n1 (single isomer, unassigned; (+)) [(+)-2-((3,4-trans)-4-methyl-1-((6-methylpyridin-2-yl)methyl)pyrrolidin-3-yl)-7-(tetrahydro-2H-pyran-4-yl)imidazo[5,1-f][1,2,4]triazin-4(3H)-one]",IC50,PDE9A2; [5],< 1000 nM
same,PDE1A selectivity (versus PDE9A2),"PDE1A; ratio of IC50 values PDE1A / PDE9A2, value greater than 1 = greater selectivity for PDE9A2",780
same,PDE1B selectivity (versus PDE9A2),"PDE1B; ratio of IC50 values PDE1B / PDE9A2, value greater than 1 = greater selectivity for PDE9A2",1005
"Cc1ccc(CN2CC(C)C(c3nn4c(C5CCOCC5)ncc4c(=O)[nH]3)C2)cn1 (single isomer, unassigned; (+)) [(+)-2-((3,4-trans)-4-methyl-1-((6-methylpyridin-3-yl)methyl)pyrrolidin-3-yl)-7-(tetrahydro-2H-pyran-4-yl)imidazo[5,1-f][1,2,4]triazin-4(3H)-one]",IC50,PDE9A2; [3],< 1000 nM
same,PDE1A selectivity (versus PDE9A2),PDE1A; [4],97
same,PDE1B selectivity (versus PDE9A2),PDE1B; [4],177
"CC1CN(CC2CCOCC2)CC1c1nn2c(C3CCOCC3)ncc2c(=O)[nH]1 (single isomer, unassigned; (+)) [(+)-2-((3,4-trans)-4-methyl-1-((tetrahydro-2H-pyran-4-yl)methyl)pyrrolidin-3-yl)-7-(tetrahydro-2H-pyran-4-yl)imidazo[5,1-f][1,2,4]triazin-4(3H)-one]",IC50,PDE9A2,< 1000 nM
same,PDE1A selectivity (versus PDE9A2),PDE1A; [1],77
same,PDE1B selectivity (versus PDE9A2),PDE1B; [1],93
"CC1CN(Cc2ncco2)CC1c1nn2c(C3CCOCC3)ncc2c(=O)[nH]1 (single isomer, unassigned; (+)) [(+)-2-((3,4-trans)-4-methyl-1-(oxazol-2-ylmethyl)pyrrolidin-3-yl)-7-(tetrahydro-2H-pyran-4-yl)imidazo[5,1-f][1,2,4]triazin-4(3H)-one]",IC50,PDE9A2,< 1000 nM
same,PDE1A selectivity (versus PDE9A2),PDE1A; [1],81
same,PDE1B selectivity (versus PDE9A2),PDE1B; [1],119
"Cc1ccccc1-c1ncc2c(=O)[nH]c(C3CN(Cc4cnccn4)CC3C)nn12 (single isomer, unassigned; (+)) [(+)-2-((3,4-trans)-4-methyl-1-(pyrazin-2-ylmethyl)pyrrolidin-3-yl)-7-(o-tolyl)imidazo[5,1-f][1,2,4]triazin-4(3H)-one]",IC50,PDE9A2,< 1000 nM
same,PDE1A selectivity (versus PDE9A2),PDE1A; [6],387
same,PDE1B selectivity (versus PDE9A2),PDE1B; [7],469
"CC1CN(Cc2cnn3ccccc23)CC1c1nn2c(C3CCOCC3)ncc2c(=O)[nH]1 (single isomer, unassigned; (+)) [(+)-2-((3,4-trans)-4-methyl-1-(pyrazolo[1,5-a]pyridin-3-ylmethyl)pyrrolidin-3-yl)-7-(tetrahydro-2H-pyran-4-yl)imidazo[5,1-f][1,2,4]triazin-4(3H)-one]",IC50,PDE9A2,< 1000 nM
same,PDE1A selectivity (versus PDE9A2),PDE1A; [1],3240
same,PDE1B selectivity (versus PDE9A2),PDE1B; [1],1010
"CC1CN(Cc2cccnn2)CC1c1nn2c(C3CCOCC3)ncc2c(=O)[nH]1 (single isomer, unassigned; (+)) [(+)-2-((3,4-trans)-4-methyl-1-(pyridazin-3-ylmethyl)pyrrolidin-3-yl)-7-(tetrahydro-2H-pyran-4-yl)imidazo[5,1-f][1,2,4]triazin-4(3H)-one]",IC50,PDE9A2; [3],< 1000 nM
same,PDE1A selectivity (versus PDE9A2),PDE1A; [4],182
same,PDE1B selectivity (versus PDE9A2),PDE1B; [4],276
"CC1CN(Cc2ccnnc2)CC1c1nn2c(C3CCOCC3)ncc2c(=O)[nH]1 (single isomer, unassigned; (+)) [(+)-2-((3,4-trans)-4-methyl-1-(pyridazin-4-ylmethyl)pyrrolidin-3-yl)-7-(tetrahydro-2H-pyran-4-yl)imidazo[5,1-f][1,2,4]triazin-4(3H)-one]",IC50,PDE9A2; [3],< 1000 nM
same,PDE1A selectivity (versus PDE9A2),PDE1A; [4],71
same,PDE1B selectivity (versus PDE9A2),PDE1B; [4],99
"Cc1ccccc1-c1ncc2c(=O)[nH]c(C3CN(Cc4ccccn4)CC3C)nn12 (single isomer, unassigned; (+)) [(+)-2-((3,4-trans)-4-methyl-1-(pyridin-2-ylmethyl)pyrrolidin-3-yl)-7-(o-tolyl)imidazo[5,1-f][1,2,4]triazin-4(3H)-one]",IC50,PDE9A2,< 1000 nM
same,PDE1A selectivity (versus PDE9A2),PDE1A; [6],73
same,PDE1B selectivity (versus PDE9A2),PDE1B; [7],148
"CC1CN(Cc2ccccn2)CC1c1nn2c(C3CCOCC3)ncc2c(=O)[nH]1 (single isomer, unassigned; (+)) [(+)-2-((3,4-trans)-4-methyl-1-(pyridin-2-ylmethyl)pyrrolidin-3-yl)-7-(tetrahydro-2H-pyran-4-yl)imidazo[5,1-f][1,2,4]triazin-4(3H)-one]",IC50,PDE9A2; [3],< 1000 nM
same,PDE1A selectivity (versus PDE9A2),PDE1A; [4],373
same,PDE1B selectivity (versus PDE9A2),PDE1B; [4],470
"Cc1ccccc1-c1ncc2c(=O)[nH]c(C3CN(Cc4cccnc4)CC3C)nn12 (single isomer, unassigned; (+)) [(+)-2-((3,4-trans)-4-methyl-1-(pyridin-3-ylmethyl)pyrrolidin-3-yl)-7-(o-tolyl)imidazo[5,1-f][1,2,4]triazin-4(3H)-one]",IC50,PDE9A2,< 1000 nM
same,PDE1A selectivity (versus PDE9A2),PDE1A; [6],103
same,PDE1B selectivity (versus PDE9A2),PDE1B; [7],183
"CC1CN(c2ncccn2)CC1c1nn2c(C3CCOCC3)ncc2c(=O)[nH]1 (single isomer, unassigned; (+)) [(+)-2-((3,4-trans)-4-methyl-1-(pyrimidin-2-yl)pyrrolidin-3-yl)-7-(tetrahydro-2H-pyran-4-yl)imidazo[5,1-f][1,2,4]triazin-4(3H)-one]",IC50,PDE9A2; [3],< 1000 nM
same,PDE1A selectivity (versus PDE9A2),PDE1A; [4],1
same,PDE1B selectivity (versus PDE9A2),PDE1B; [4],1
"Cc1cnccc1-c1ncc2c(=O)[nH]c(C3CN(Cc4ncccn4)CC3C)nn12 (single isomer, unassigned; (+)) [(+)-2-((3,4-trans)-4-methyl-1-(pyrimidin-2-ylmethyl)pyrrolidin-3-yl)-7-(3-methylpyridin-4-yl)imidazo[5,1-f][1,2,4]triazin-4(3H)-one]",IC50,PDE9A2; [5],< 1000 nM
same,PDE1A selectivity (versus PDE9A2),"PDE1A; ratio of IC50 values PDE1A / PDE9A2, value greater than 1 indicates greater selectivity for PDE9A2",85
same,PDE1B selectivity (versus PDE9A2),"PDE1B; ratio of IC50 values PDE1B / PDE9A2, value greater than 1 indicates greater selectivity for PDE9A2",63
"Cc1ccncc1-c1ncc2c(=O)[nH]c(C3CN(Cc4ncccn4)CC3C)nn12 (single isomer, unassigned; (+)) [(+)-2-((3,4-trans)-4-methyl-1-(pyrimidin-2-ylmethyl)pyrrolidin-3-yl)-7-(4-methylpyridin-3-yl)imidazo[5,1-f][1,2,4]triazin-4(3H)-one]",IC50,PDE9A2,< 1000 nM
same,PDE1A selectivity (versus PDE9A2),PDE1A; [6],85
same,PDE1B selectivity (versus PDE9A2),PDE1B; [7],127
